Assay results from patent US20240226098A1, “COMPOUNDS AND METHODS FOR MODULATING SPLICING” (REMIX THERAPEUTICS INC., priority 2020, published 2024).

Tests used:
Assay type in all cases: cell-based
[1] = system: HTT mRNA, alternative junction (AJ); test: Splicing assay (RT-qPCR): increase in HTT alternative junction (AJ) mRNA; conditions: A673 or K562 cell line, 24 hours treatment, top dose 10 uM; concentration having 50% response in AJ increase
Experimental: (§1) Compounds described herein were used to modulate RNA transcript abundance in cells. The expression of a target mRNA was measured by detecting the formation of an exon-exon junction in the canonical transcript (CJ). A compound mediated exon-inclusion event was detected by observing an increase in formation of a new junction with an alternative exon (AJ). Real-time qPCR assays were used to detect these splicing switches and interrogate the potency of various compounds towards different target genes. A high-throughput real time quantitative PCR (RT-qPCR) assay was developed to measure these two isoforms of the mRNA (CJ and AJ) for an exemplary gene, HTT, together with a control housekeeping gene, GAPDH or GUSB or PPIA, used for normalization. Briefly, the A673 or K562 cell line was treated with various compounds described herein (e.g., compounds of Formula (I)). After treatment, the levels of the HTT mRNA targets were determined from each sample of cell lysate by cDNA synthesis followed by qPCR.
(§2) • Cells-to-CT 1-step kit: ThermoFisher A25602, Cells-to-CT lysis reagent: ThermoFisher 4391851C, TaqMan™ Fast Virus 1-Step Master Mix: ThermoFisher 4444436 • GAPDH: VIC-PL, ThermoFisher 4326317E (Assay: Hs99999905_ml)—used for K562/suspension cell lines • GUSB: VIC-PL, ThermoFisher 4326320E (Assay: Hs99999908_ml)—used for K562/suspension cell lines • PPIA: VIC-PL, ThermoFisher 4326316E (Assay: Hs99999904_ml)—used for A673/adherent cell lines
(§3) The A673 cell line was cultured in DMEM with 10% FBS. Cells were diluted with full growth media and plated in a 96-well plate (15,000 cells in 100 ul media per well). The plate was incubated at 37° C. with 5% CO2 for 24 hours to allow cells to adhere. An 11-point 3-fold serial dilution of the compounds was made in DMSO then diluted in media in an intermediate plate. Compounds were transferred from the intermediate plate to the cell plate with the top dose at a final concentration of 10 uM in the well. Final DMSO concentration was kept at or below 0.25%. The cell plate was returned to the incubator at 37° C. with 5% CO2 for an additional 24 hours.
(§4) The K562 cell line was cultured in IMDM with 10% FBS. For K562, cells were diluted with full growth media and plated in either a 96-well plate (50,000 cells in 50 uL media per well) or a 384-well plate (8,000-40,000 cells in 45 uL media per well). An 11-point 3-fold serial dilution of the compounds were made in DMSO then diluted in media in an intermediate plate. Compound was transferred from the intermediate plate to the cell plate with the top dose at a final concentration of 10 uM in the well. Final DMSO concentration was kept at or below 0.25%. Final volume was 100 uL for 96-well plate and 50 uL for 384-well plate. The cell plate was then placed in an incubator at 37° C. with 5% CO2 for 24 hours.
(§5) The cells were then gently washed with 50 uL-100 uL cold PBS before proceeding to addition of lysis buffer. 30 uL-50 uL of room temperature lysis buffer with DNAse I (and optionally RNAsin) was added to each well. Cells were shaken/mixed thoroughly at room temperature for 5-10 minutes for lysis to take place and then 3 uL-5 uL of room temperature stop solution was added and wells were shaken/mixed again. After 2-5 minutes, the cell lysate plate was transferred to ice for RT-qPCR reaction setup. The lysates could also be frozen at −80° C. for later use.
(§6) In some cases, a direct lysis buffer was used. An appropriate volume of 3× lysis buffer (10 mM Tris, 150 mM NaCl, 1.5%-2.5% Igepal and 0.1-1 U/uL RNAsin, pH 7.4) was directly added to either K562 or A673 cells in media and mixed by pipetting 3 times. The plates were then incubated at room temperature with shaking/rocking for 20-50 minutes to allow for lysis to take place. After this time, the cell lysate plate was transferred to ice to set up for the RT-qPCR reactions. The lysates could also be frozen at −80° C. for later use. […]

[2] = system: HTT mRNA, canonical junction (CJ); test: Splicing assay (RT-qPCR): decrease in HTT canonical junction (CJ) mRNA; conditions: A673 or K562 cell line, 24 hours treatment, top dose 10 uM; concentration having 50% response in CJ decrease
Experimental: as §1, §2, §3, §4, §5, §6

HTT CJ mRNA = test: Gene panel canonical junction qPCR assay: decrease in HTT CJ mRNA; conditions: protocol as for Table 2, read-out: HTT (IC50, decrease in CJ mRNA levels)
Experimental: as §1, §3, §4, §5
(§7) In some cases, a direct lysis buffer was used. An appropriate volume of 3× lysis buffer (10 mM Tris, 150 mM NaCl, 1.5%-2.5% Igepal and 0.1-1 U/uL RNAsin, pH 7.4) was directly added to either K562 or A673 cells in media and mixed by pipetting 3 times. The plates were then incubated at room temperature with shaking/rocking for 20-50 minutes to allow for lysis to take place. After this time, the cell lysate plate was transferred to ice to set up for the RT-qPCR reactions. The lysates could also be frozen at −80° C. for later use.
(§8) To set up 10 uL RT-qPCR reactions, cell lysates were transferred to 384-well qPCR plates containing the master mix according to the table below. The plates were sealed, gently vortexed, and spun down before the run. The volumes were adjusted accordingly in some instances where the reaction was carried in 20 uL. The table below summarizes the components of the RT-qPCR reactions:
(§9) The RT-qPCR reaction was performed using a QuantStudio (ThermoFisher) under the following fast cycling conditions. […]

SMN2 CJ mRNA = test: Gene panel canonical junction qPCR assay: decrease in SMN2 CJ mRNA; conditions: protocol as for Table 2, read-out: SMN2 (IC50, decrease in CJ mRNA levels)
Experimental: as §1, §3, §4, §5, §7, §8, §9

Target C CJ mRNA = test: Gene panel canonical junction qPCR assay: decrease in Target C CJ mRNA; conditions: protocol as for Table 2, read-out: Target C (IC50, decrease in CJ mRNA levels)
Experimental: as §1, §3, §4, §5, §7, §8, §9

Structure (SMILES)	AC50 [1] [µM]	AC50 [2] [µM]	IC50 (HTT CJ mRNA) [µM]	IC50 (SMN2 CJ mRNA) [µM]	IC50 (Target C CJ mRNA) [µM]
CCC1CN(c2ccc(C(=O)Nc3cc(F)c4nc(C)cn4c3)c3nnccc23)CCN1 (stereo in doubt) [Compound 152, 5-[(3R)-3-ethylpiperazin-1-yl]-N-[8-fluoro-2-methylimidazo[1,2-a]pyridin-6-yl]cinnoline-8-carboxamide]	1 to 10	1 to 10	1 to 10	< 0.1	> 10
Cc1nc2c(F)cc(NC(=O)c3ccc(N4CCNCC4)c4ccnnc34)cc2o1 [Compound 117, N-(4-fluoro-2-methyl-1,3-benzoxazol-6-yl)-5-(piperazin-1-yl) cinnoline-8-carboxamide]	1 to 10	1 to 10	1 to 10	< 0.1	1 to 10
Cc1cn2cc(NC(=O)c3ccc(N4CCNCC4)c4ccnnc34)cc(Cl)c2n1 [Compound 124, N-[8-chloro-2-methylimidazo[1,2-a]pyridin-6-yl]-5-(piperazin-1-yl)cinnoline-8-carboxamide]	1 to 10	1 to 10	1 to 10	< 0.1	1 to 10
Cc1cn2cc(NC(=O)c3ccc(N4C[C@H]5C[C@@H]4C5N(C)C)c4ccnnc34)cc(F)c2n1 (stereo partly shown) [Compound 155]	> 10	> 10	> 10	0.1 to 1	> 10
CCN1CCC(c2ccc(C(=O)Nc3cc(F)c4nc(C)cn4c3)c3nnccc23)CC1 [Compound 141, 5-(1-ethylpiperidin-4-yl)-N-[8-fluoro-2-methylimidazo[1,2-a]pyridin-6-yl] cinnoline-8-carboxamide]	1 to 10	1 to 10	1 to 10	< 0.1	1 to 10
Cc1cn2cc(NC(=O)c3ccc(N4CCNCC4)c4ccnnc34)c(C)cc2n1 [Compound 119, N-[2,7-dimethylimidazo[1,2-a]pyridin-6-yl]-5-(piperazin-1-yl) cinnoline-8-carboxamide]	1 to 10	1 to 10	1 to 10	< 0.1	1 to 10
Cc1cn2cc(NC(=O)c3ccc(N(C)[C@@H]4C[C@H]5CC[C@@H](C4)N5)c4ccnnc34)cc(F)c2n1 [Compound 156, 5-[(exo)-8-azabicyclo[3.2.1]octan-3-yl(methyl)amino]-N-[8-fluoro-2-methylimidazo[1,2-a]pyridin-6-yl]cinnoline-8-carboxamide]	> 10	> 10	> 10	0.1 to 1	> 10
Cc1cn2nc(NC(=O)c3ccc(N4CCNCC4)c4ccnnc34)cc2c(C)n1 [Compound 123, N-[4,6-dimethylpyrazolo[1,5-a]pyrazin-2-yl]-5-(piperazin-1-yl)cinnoline-8-carboxamide]	1 to 10	1 to 10	1 to 10	1 to 10	1 to 10
Cn1cc2c(F)cc(NC(=O)c3ccc(N4CCNCC4)c4ccnnc34)cc2n1 [Compound 116, N-(4-fluoro-2-methylindazol-6-yl)-5-(piperazin-1-yl) cinnoline-8-carboxamide]	> 10	> 10	> 10	> 10	> 10
Cc1cn2nc(NC(=O)c3ccc(N4CCNCC4)c4ccnnc34)cc(C)c2n1 [Compound 100, N-[2,8-dimethylimidazo[1,2-b]pyridazin-6-yl]-5-(piperazin-1-yl)cinnoline-8-carboxamide]	0.1 to 1	0.1 to 1	0.1 to 1	0.1 to 1	0.1 to 1
Cc1cc2c(N3CCNCC3)ccc(C(=O)Nc3cc(F)c4nc(C)cn4c3)c2nn1 [Compound 159]	0.1 to 1	0.1 to 1	0.1 to 1	< 0.1	1 to 10
Cc1cn2cc(NC(=O)c3ccc(N4CCC(N5CCCC5)C4)c4ccnnc34)cc(F)c2n1 (stereo not shown) [Compound 133, 5-[[1,3-bipyrrolidin]-1-yl]-N-[8-fluoro-2-methylimidazo[1,2-a]pyridin-6-yl]cinnoline-8-carboxamide]	1 to 10	1 to 10	1 to 10	< 0.1	1 to 10
Cc1cn2cc(NC(=O)c3ccc(C4CCN(C)CC4)c4ccnnc34)cc(F)c2n1 [Compound 140, N-[8-fluoro-2-methylimidazo[1,2-a]pyridin-6-yl]-5-(1-methylpiperidin-4-yl) cinnoline-8-carboxamide]	1 to 10	1 to 10	1 to 10	< 0.1	> 10
Cc1cn2cc(NC(=O)c3ccc(N4CCC(N(C)C)CC4)c4nccnc34)cc(F)c2n1 [Compound 158, 8-[4-(dimethylamino)piperidin-1-yl]-N-[8-fluoro-2-methylimidazo[1,2-a]pyridin-6-yl] quinoxaline-5-carboxamide]	0.1 to 1	0.1 to 1	0.1 to 1	< 0.1	1 to 10
Cc1cn2cc(NC(=O)c3ccc(N4CCNCC4)c4ccnnc34)cc(C)c2n1 [Compound 125, N-[2,8-dimethylimidazo[1,2-a]pyridin-6-yl]-5-(piperazin-1-yl)cinnoline-8-carboxamide]	1 to 10	1 to 10	1 to 10	< 0.1	1 to 10
Cc1cn2cc(NC(=O)c3ccc(N4CCNC(C)C4)c4ccnnc34)cc(F)c2n1 (stereo not shown) [Compound 128, N-[8-fluoro-2-methylimidazo[1,2-a]pyridin-6-yl]-5-(3-methylpiperazin-1-yl) cinnoline-8-carboxamide]	0.1 to 1	0.1 to 1	0.1 to 1	< 0.1	0.1 to 1
Cc1cn2cc(NC(=O)c3ccc(C4CCNCC4)c4ccnnc34)cc(F)c2n1 [Compound 103, N-[8-fluoro-2-methylimidazo[1,2-a]pyridin-6-yl]-5-(piperidin-4-yl) cinnoline-8-carboxamide]	0.1 to 1	1 to 10	0.1 to 1	1 to 10	1 to 10
